Starred links: 1 amine or outer side, 2 acyl side, 3 side chain; linkers in the order of their positions; H or OH if unused. Positions of bridges follow the written chain, without caps; N, C: chain ends. Non-standard residues stand in square brackets, D forms with d. Residues, ends and D or L forms follow the SMILES beside them. ξ: configuration not given here. X5 = NC(=O)CNC(=O)[C@H](CSCC(=O)[*:1])CC(=O)C1(N[*:2])CC1; X2 = CC[C@H]1C[C@@]1(N[*:1])C(=O)[*:2]; X4 = C[C@H]1C[C@@]1(N[*:1])C(=O)[*:2]; Bta = N[C@@H](Cc1csc2ccccc12)C(=O)O; Hyp = O=C(O)[C@@H]1C[C@@H](O)CN1; NMeNle = CCCC[C@H](NC)C(=O)O; hLeu = CC(C)CC[C@H](N)C(=O)O; NMeA = CN[C@@H](C)C(=O)O; Dab = NCC[C@H](N)C(=O)O; Dap = NC[C@H](N)C(=O)O; Ac3c = NC1(C(=O)O)CC1; Aib = CC(C)(N)C(=O)O; ξC = NC(CS)C(=O)O

T1 sequence (Q9NZQ7 with tags, fused parts or gaps): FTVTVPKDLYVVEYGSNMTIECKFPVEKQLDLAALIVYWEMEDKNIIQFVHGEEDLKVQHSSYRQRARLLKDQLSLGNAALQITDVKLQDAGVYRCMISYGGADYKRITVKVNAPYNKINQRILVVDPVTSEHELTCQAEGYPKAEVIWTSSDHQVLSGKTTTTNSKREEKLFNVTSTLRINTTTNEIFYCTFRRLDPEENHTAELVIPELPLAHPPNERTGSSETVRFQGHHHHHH

One assay has as its target T1, PD-1-Ig binding to PD-L1-TVMV-His (PD-L1-His) (Homo sapiens, UniProt Q9NZQ7).
T1 construct: hPDL1(19-239)-TVMV-His; TVMV protease cleavage site (C); made in house; host or cells: HEK293T cells
The assay can be described thus: PD-1/PD-L1 Homogenous Time-Resolved Fluorescence (HTRF) binding assay. The settings on record: PD-1-Ig/PD-L1-His binding; numeric values. From the text:
The ability of the macrocyclic peptides of the present disclosure to bind to PD-L1 was investigated using a PD-1/PD-L1 Homogenous Time-Resolved Fluorescence (HTRF) binding assay.
Homogenous Time-Resolved Fluorescence (HTRF) Assays of Binding of Soluble PD-1 to Soluble PD-L1. Soluble PD-1 and soluble PD-L1 refers to proteins with carboxyl-end truncations that remove the transmembrane-spanning regions and are fused to heterologous sequences, specifically the Fc portion of the human immunoglobuling G sequence (Ig) or the hexahistidine epitope tag (His). All binding studies were performed in an HTRF assay buffer consisting of dPBS supplemented with 0.1% (w/v) bovine serum albumin and 0.05% (v/v) Tween-20. For the PD-1-Ig/PD-L1-His binding assay, inhibitors were pre-incubated with PD-L1-His (10 nM final) for 15 m in 4 μl of assay buffer, followed by addition of PD-1-Ig (20 nM final) in 1 μl of assay buffer and further incubation for 15 m. PD-L1 fusion proteins from either human, cynomologous macaques, mouse, or other species were used. HTRF detection was achieved using europium crypate-labeled anti-Ig monoclonal antibody (1 nM final) and allophycocyanin (APC) labeled anti-His monoclonal antibody (20 nM final). Antibodies were diluted in HTRF detection buffer and 5 μl was dispensed on top of binding reaction. The reaction was allowed to equilibrate for 30 minutes and signal (665 nm/620 nm ratio) was obtained using an EnVision fluorometer. Additional binding assays were established between PD-1-Ig/PD-L2-His (20 and 5 nM, respectively), CD80-His/PD-L1-Ig (100 and 10 nM, respectively) and CD80-His/CTLA4-Ig (10 and 5 nM, respectively). Binding/competition studies between biotinylated Compound No. 71 and human PD-L1-His were performed as follows. Macrocyclic peptide inhibitors were pre-incubated with PD-L1-His (10 nM final) for 60 minutes in 4 μl of assay buffer followed by addition of biotinylated Compound No. 71 (0.5 nM final) in 1 μl of assay buffer. Binding was allowed to equilibrate for 30 minutes followed by addition of europium crypated labeled Streptavidin (2.5 pM final) and APC-labeled anti-His (20 nM final) in 5 μl of HTRF buffer. The reaction was allowed to equilibrate for 30 m and signal (665 nm/620 nm ratio) was obtained using an EnVision fluorometer.
Recombinant Proteins. Carboxyl-truncated human PD-1 (amino acids 25-167) with a C-terminal human Ig epitope tag [hPD-1 (25-167)-3S-IG] and human PD-L1 (amino acids 18-239) with a C-terminal His epitope tag [hPD-L1(19-239)-tobacco vein mottling virus protease cleavage site (TVMV)-His] were expressed in HEK293T cells and purified sequentially by recombinant Protein A affinity chromatography and size exclusion chromatography. Human PD-L2-His (Sino Biologicals), CD80-His (Sino Biologicals), CTLA4-Ig (RnD Systems) were all obtained through commercial sources.
Ranges are as follows: A=0.10-10 μM; B=0.01-0.099 μM; C=0.004-0.0099 μM.
As for `CCCC[C@H]1C(=O)N(C)[C@@H](CCCC)C(=O)NC2(CC2)C(=O)N[C@H](C(=O)NCC(N)=O)CSCC(=O)N[C@@H](Cc2ccc(O)cc2)C(=O)N(C)[C@@H](C)C(=O)N[C@@H](CC(N)=O)C(=O)N2CCC[C@H]2C(=O)N[C@@H](CN)C(=O)N[C@@H](CC(C)C)C(=O)N2C[C@H](O)C[C@H]2C(=O)N[C@@H](Cc2c[nH]c3ccccc23)C(=O)N[C@@H](CCN)C(=O)N[C@@H](Cc2c[nH]c3ccccc23)C(=O)N1C` [Example 9006] ({CH2CO}-Y[NMeA]NP[Dap]L[Hyp]W[Dab]W[NMeNle][NMeNle][Ac3c]CG-NH2; thioether N-14), the half-inhibitory concentration (IC50) (in general, the midpoint of a concentration-inhibition curve) came to 40 nM. This counts as double-digit nanomolar. As to `CCCC[C@H]1C(=O)N(C)[C@@H](CCCC)C(=O)N[C@@H](CC(C)C)C(=O)N[C@H](C(=O)NCC(N)=O)CSCC(=O)N[C@@H](Cc2ccc(O)cc2)C(=O)N(C)[C@@H](C)C(=O)N[C@@H](CC(N)=O)C(=O)N2CCC[C@H]2C(=O)N[C@@H](CN)C(=O)N[C@@H](CC(C)C)C(=O)N2C[C@H](O)C[C@H]2C(=O)N[C@@H](Cc2c[nH]c3ccccc23)C(=O)NC2(CC2)C(=O)N[C@@H](Cc2c[nH]c3ccccc23)C(=O)N1C` [Example 9008] ({CH2CO}-Y[NMeA]NP[Dap]L[Hyp]W[Ac3c]W[NMeNle][NMeNle]LCG-NH2; thioether N-14), the IC50 was determined as 3620 nM.

In turn, `CCCC[C@H]1C(=O)N(C)[C@@H](CCCC)C(=O)N[C@@H](CCCNC(=N)N)C(=O)NC(C(=O)NCC(N)=O)CSCC(=O)N[C@@H](Cc2ccc(O)cc2)C(=O)NC2(CC2)C(=O)N[C@@H](CC(N)=O)C(=O)N2CCC[C@H]2C(=O)N[C@@H](Cc2c[nH]cn2)C(=O)N[C@@H](CC(C)C)C(=O)N2C[C@H](O)C[C@H]2C(=O)N[C@@H](Cc2c[nH]c3ccccc23)C(=O)N[C@@H](CO)C(=O)N[C@@H](Cc2c[nH]c3ccccc23)C(=O)N1C` (stereo partly drawn) [Example 9002] gave an IC50 of 4.13 nM. Compared with the last molecule, the IC50 is about 880-fold lower.

The same assay, now with this note: PD-1-Ig/PD-L1-His binding; values given as range classes.
`CCCC[C@H]1C(=O)N(C)[C@@H](CCCC)C(=O)N[C@@H](CCCNC(=N)N)C(=O)NC(C(=O)NCC(N)=O)CSCC(=O)N[C@@H](Cc2ccc(O)cc2)C(=O)NC(C)(C)C(=O)N[C@@H](CC(N)=O)C(=O)N2CCC[C@H]2C(=O)N[C@@H](Cc2c[nH]cn2)C(=O)N[C@@H](CC(C)C)C(=O)N2C[C@H](O)C[C@H]2C(=O)N[C@@H](Cc2c[nH]c3ccccc23)C(=O)N[C@@H](CO)C(=O)N[C@@H](Cc2csc3ccccc23)C(=O)N1C` (stereo partly drawn) [Example 9003] ({CH2CO}-Y[Aib]NPHL[Hyp]WS[Bta][NMeNle][NMeNle]R[ξC]G-NH2; thioether N-14): the IC50 fell in the range of 10 to 99 nM.

Molecule `CCCC[C@H]1C(=O)N(C)[C@@H](CCCC)C(=O)N[C@@H](CCCNC(=N)N)C(=O)NC(C(=O)NCC(N)=O)CSCC(=O)N[C@@H](Cc2ccc(O)cc2)C(=O)N(C)[C@@H](C)C(=O)N[C@@H](CC(N)=O)C(=O)N[C@]2(C[C@@H]2CC)C(=O)N[C@@H](Cc2cnc[nH]2)C(=O)N[C@@H](CC(C)C)C(=O)N2C[C@H](O)C[C@H]2C(=O)N[C@@H](Cc2c[nH]c3ccccc23)C(=O)N[C@@H](CO)C(=O)N[C@@H](Cc2csc3ccccc23)C(=O)N1C` (stereo partly drawn) [Example 10008] ({CH2CO}-Y[NMeA]N[X2]HL[Hyp]WS[Bta][NMeNle][NMeNle]R[ξC]G-NH2; thioether N-14) gave a concentration for half-maximal inhibition (IC50) of 10 to 99 nM. With `CCCC[C@H]1C(=O)N(C)[C@@H](CCCC)C(=O)N[C@@H](CCCNC(=N)N)C(=O)NC(C(=O)NCC(N)=O)CSCC(=O)N[C@@H](Cc2ccc(O)cc2)C(=O)N(C)[C@@H](C)C(=O)N[C@@H](CC(N)=O)C(=O)N[C@]2(C[C@@H]2C)C(=O)N[C@@H](Cc2cnc[nH]2)C(=O)N[C@@H](CC(C)C)C(=O)N2C[C@H](O)C[C@H]2C(=O)N[C@@H](Cc2c[nH]c3ccccc23)C(=O)N[C@@H](CO)C(=O)N[C@@H](Cc2csc3ccccc23)C(=O)N1C` (stereo partly drawn) [Example 10004] ({CH2CO}-Y[NMeA]N[X4]HL[Hyp]WS[Bta][NMeNle][NMeNle]R[ξC]G-NH2; thioether N-14), the IC50 fell in the range of 10 to 99 nM. The same measure, in the same setting: as for `CCCC[C@H]1C(=O)N(C)[C@@H](CCCC)C(=O)N[C@@H](CCCNC(=N)N)C(=O)NC(C(=O)NCC(N)=O)CSCC(=O)N[C@@H](Cc2ccc(O)cc2)C(=O)NC2(CC2)C(=O)N[C@@H](CC(N)=O)C(=O)N2CCC[C@H]2C(=O)N[C@@H](Cc2c[nH]cn2)C(=O)N[C@@H](CC(C)C)C(=O)N2C[C@H](O)C[C@H]2C(=O)N[C@@H](Cc2c[nH]c3ccccc23)C(=O)N[C@@H](CO)C(=O)N[C@@H](Cc2csc3ccccc23)C(=O)N1C` (stereo partly drawn) [Example 9001] ({CH2CO}-Y[Ac3c]NPHL[Hyp]WS[Bta][NMeNle][NMeNle]R[ξC]G-NH2; thioether N-14), the figure is 4 to 9.9 nM; as for `CCCC[C@H]1C(=O)N(C)[C@@H](CCCC)C(=O)NC2(CC2)C(=O)C[C@H](C(=O)NCC(N)=O)CSCC(=O)N[C@@H](Cc2ccccc2)C(=O)N(C)[C@@H](C)C(=O)N[C@@H](CC(N)=O)C(=O)N2CCC[C@H]2C(=O)N[C@@H](Cc2c[nH]cn2)C(=O)N[C@@H](CCC(C)C)C(=O)NCC(=O)N[C@@H](Cc2c[nH]c3ccccc23)C(=O)N[C@@H](CO)C(=O)N[C@@H](Cc2c[nH]c3ccccc23)C(=O)N1C` [Example 5001] (F[NMeA]NPH[hLeu]GWSW[NMeNle][NMeNle]; linker N-C via X5), 100 to 10000 nM; as for `CCCC[C@H]1C(=O)N(C)[C@@H](CCCC)C(=O)N[C@@H](CCCNC(=N)N)C(=O)NC(C(=O)NCC(N)=O)CSCC(=O)N[C@@H](Cc2ccc(O)cc2)C(=O)NC(C)(C)C(=O)N[C@@H](CC(N)=O)C(=O)N2CCC[C@H]2C(=O)N[C@@H](Cc2c[nH]cn2)C(=O)N[C@@H](CC(C)C)C(=O)N2C[C@H](O)C[C@H]2C(=O)N[C@@H](Cc2c[nH]c3ccccc23)C(=O)N[C@@H](CO)C(=O)N[C@@H](Cc2c[nH]c3ccccc23)C(=O)N1C` (stereo partly drawn) [Example 9004], 10 to 99 nM.

As to `CCCC[C@H]1C(=O)N(C)[C@@H](CCCC)C(=O)N[C@@H](CCCNC(=N)N)C(=O)NC(C(=O)NCC(N)=O)CSCC(=O)N[C@@H](Cc2ccc(O)cc2)C(=O)N(C)[C@@H](C)C(=O)N[C@@H](CC(N)=O)C(=O)N[C@]2(C[C@@H]2CC)C(=O)N[C@@H](Cc2cnc[nH]2)C(=O)N[C@@H](CC(C)C)C(=O)N2CCC[C@H]2C(=O)N[C@@H](Cc2c[nH]c3ccccc23)C(=O)N[C@@H](CO)C(=O)N[C@@H](Cc2c[nH]c3ccccc23)C(=O)N1C` (stereo partly drawn) [Example 10010] ({CH2CO}-Y[NMeA]N[X2]HLPWSW[NMeNle][NMeNle]R[ξC]G-NH2; thioether N-14), the IC50 is 100 to 10000 nM. As for `CCCC[C@H]1C(=O)N(C)[C@@H](CCCC)C(=O)NC(C)(C)C(=O)N[C@H](C(=O)NCC(N)=O)CSCC(=O)N[C@@H](Cc2ccc(O)cc2)C(=O)N(C)[C@@H](C)C(=O)N[C@@H](CC(N)=O)C(=O)N2CCC[C@H]2C(=O)N[C@@H](CN)C(=O)N[C@@H](CC(C)C)C(=O)N2C[C@H](O)C[C@H]2C(=O)N[C@@H](Cc2c[nH]c3ccccc23)C(=O)N[C@@H](CCN)C(=O)N[C@@H](Cc2c[nH]c3ccccc23)C(=O)N1C` [Example 9005] ({CH2CO}-Y[NMeA]NP[Dap]L[Hyp]W[Dab]W[NMeNle][NMeNle][Aib]CG-NH2; thioether N-14), the IC50 was in the range of 100 to 10000 nM. On the same count and under the same terms, as for `CCCC[C@H]1C(=O)N(C)[C@@H](CCCC)C(=O)N[C@@H](CC(C)C)C(=O)N[C@H](C(=O)NCC(N)=O)CSCC(=O)N[C@@H](Cc2ccc(O)cc2)C(=O)N(C)[C@@H](C)C(=O)N[C@@H](CC(N)=O)C(=O)N2CCC[C@H]2C(=O)N[C@@H](CN)C(=O)NC(C)(C)C(=O)N2C[C@H](O)C[C@H]2C(=O)N[C@@H](Cc2c[nH]c3ccccc23)C(=O)N[C@@H](CCN)C(=O)N[C@@H](Cc2c[nH]c3ccccc23)C(=O)N1C` [Example 9009] ({CH2CO}-Y[NMeA]NP[Dap][Aib][Hyp]W[Dab]W[NMeNle][NMeNle]LCG-NH2; thioether N-14), the figure is 100 to 10000 nM.
